Values of other authors as cited in patent publication US20230321590A1, “AQUEOUS LIQUID SORBENT” (COMPACT CARBON CAPTURE AS, priority 2020, published 2023).

Conditions: literature values

Row | SMILES | Reaction rate constant at 25° C. [m^3kmol^−1s^−1]
1 | NCCOCCO [Diglycolamine (DGA), Diglycolamine] | 6663
2 | C1CNCCN1 [Piperazine] | 53700
3 | CC(O)CNCC(C)O (stereo not drawn) [Diisopropanolamine (DIPA), Diisopropanolamine] | 2585
4 | OCCNCCO [Diethanolamine (DEA), Diethanolamine] | 2375
5 | CC(C)(N)CO [2-amino-2-methyl-1-propanol (AMP), 2-amino-2-methyl-1-propanol] | 810
6 | NCCO [Monoethanolamine (MEA), Monoethanolamine] | 7000
